Data on three compounds can be found in PMC4990478 (Nature chemical biology, 2016).

Where a SMILES comes first, the peptide text is derived from it. [ ]: non-standard residue; d: D form. The star is where a group is joined. ξ: configuration not given here. Aoe(9ξ) = N[C@@H](CCCCCC(=O)C1CO1)C(=O)O; AMC = Cc1cc(=O)oc2cc(N*)ccc12; dPip = O=C(O)[C@H]1CCCCN1

One test relates to HD1-A (a class II HDAC). The settings on record: cited from earlier work.
In test [1] the test system is maize HD1-B (a class I HDAC). The settings on record: cited from earlier work.
Another test concerns the target T1, zCD1 (Danio rerio, UniProt F8W4B7).
T1 sequence (F8W4B7 60-419): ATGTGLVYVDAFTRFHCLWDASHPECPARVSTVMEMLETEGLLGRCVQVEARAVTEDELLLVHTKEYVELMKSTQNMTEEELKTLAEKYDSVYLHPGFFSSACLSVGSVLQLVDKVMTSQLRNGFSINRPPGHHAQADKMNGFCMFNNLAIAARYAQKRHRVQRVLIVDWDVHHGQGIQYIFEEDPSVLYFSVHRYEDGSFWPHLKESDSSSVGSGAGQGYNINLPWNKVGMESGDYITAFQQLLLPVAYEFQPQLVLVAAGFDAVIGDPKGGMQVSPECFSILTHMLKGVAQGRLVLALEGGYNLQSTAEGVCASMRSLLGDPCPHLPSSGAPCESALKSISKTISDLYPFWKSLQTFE
In words: Steady-state kinetics, fluorogenic substrates. It counts as biochemical.

The test system of the next test is HDAC1. The settings on record: cited from earlier work.
The test system of a further test is HDAC6. The settings on record: cited from earlier work.

`C[C@@H]1NC(=O)[C@H]2CCCN2C(=O)[C@H](CCCCCC(=O)[C@@H]2CO2)NC(=O)[C@@H](C)NC1=O` [HC toxin, cyclo-(L-Ala-D-Ala-L-Aoe-D-Pro)]: the mode of inhibition entry with HD1-A (a class II HDAC) is on record as “reversible inhibition”; in test [1], “irreversible inhibition”.
As for `CC(=O)NCCCC[C@H](NC(=O)CNC(=O)[C@H](CCCNC(=N)N)NC(C)=O)C(=O)Nc1ccc2c(C)cc(=O)oc2c1` [Substrate 8, Ac-Arg-Gly-Lys(Ac)-AMC] (Ac-Arg-Gly-Lys(Ac)-{AMC}), the “kcat/KM reduced, zCD1 compared with zCD2” value on zCD1 was 7 fold.
Turning to `O=C(CCCCC[C@@H]1NC(=O)[C@H]2CCCCN2C(=O)[C@H](Cc2ccccc2)NC(=O)[C@H](Cc2ccccc2)NC1=O)C1CO1` (some centres unmarked) [trapoxin] (cyclo(FF[dPip][Aoe(9ξ)])), the values for the mode of inhibition result in the test with HDAC1 and in the test with HDAC6 were “potent irreversible inhibitor” and “reversible inhibitor”, respectively.
